The values below come from ChEMBL document CHEMBL5143612, “Antibacterial activity evaluation of vinyl sulfones against global predominant methicillin-resistant Staphylococcus aureus USA300” (Bioorg Med Chem Lett, 2022).

Data set [1] has as its system Staphylococcus aureus. In words: Antibacterial activity against community-associated methicillin-resistant Staphylococcus aureus USA300 SF8300 assessed as inhibition of bacterial growth by measuring zone of inhibition at 30 ug incubated for 18 to 20 hrs by CLSI based disk diffusion analysis. Type of data set: functional. Conditions: time 18-20 hrs, read-out: DIZ.
The test system of data set [2] is Staphylococcus aureus. As to the kind of experiment: Antibacterial activity against methicillin-susceptible Staphylococcus aureus ATCC 25923 assessed as inhibition of bacterial growth by measuring zone of inhibition at 30 ug incubated for 18 to 20 hrs by CLSI based disk diffusion analysis. Type of data set: functional. As to conditions: time 18-20 hrs, read-out: DIZ.

Data set [3] relates to Pseudomonas aeruginosa. In words: Antibacterial activity against Pseudomonas aeruginosa assessed as inhibition of bacterial growth by measuring zone of inhibition at 30 ug incubated for 18 to 20 hrs by CLSI based disk diffusion analysis. The format is functional. As to conditions: time 18-20 hrs, read-out: DIZ.
Data set [4] relates to Staphylococcus aureus. As to the kind of experiment: Antibacterial activity against community-associated methicillin-resistant Staphylococcus aureus USA300 SF8300 assessed as inhibition of bacterial growth incubated for 18 to 20 hrs by CLSI based microdilution susceptibility analysis. The format is functional. Conditions: time 18-20 hrs.
Data set [5] has as its system Staphylococcus aureus. As to the kind of experiment: Antibacterial activity against methicillin-susceptible Staphylococcus aureus ATCC 29213 assessed as inhibition of bacterial growth incubated for 18 to 20 hrs by CLSI based microdilution susceptibility analysis. Type of data set: functional. As to conditions: time 18-20 hrs. (In broth dilution the organism is exposed to a series of concentrations in liquid medium.)

Data set [6] deals with Pseudomonas aeruginosa. In words: Antibacterial activity against Pseudomonas aeruginosa assessed as inhibition of bacterial growth incubated for 18 to 20 hrs by CLSI based microdilution susceptibility analysis. The format is functional. As to conditions: time 18-20 hrs.
Data set [7] has as its system Staphylococcus aureus. In words: Bactericidal activity against community-associated methicillin-resistant Staphylococcus aureus USA300 SF8300 assessed as inhibition of bacterial growth incubated for 18 to 20 hrs by CLSI based microdilution susceptibility analysis. The format is functional. Conditions: time 18-20 hrs.
For data set [8], the system named is Staphylococcus aureus. In words: Bactericidal activity against methicillin-susceptible Staphylococcus aureus ATCC 29213 assessed as inhibition of bacterial growth incubated for 18 to 20 hrs by CLSI based microdilution susceptibility analysis. Conditions: time 18-20 hrs. The format is functional.
In data set [9] the test system is Pseudomonas aeruginosa. In words: Bactericidal activity against Pseudomonas aeruginosa assessed as inhibition of bacterial growth incubated for 18 to 20 hrs by CLSI based microdilution susceptibility analysis. The format is functional. Conditions: time 18-20 hrs.
Data set [10] deals with Albumin (Homo sapiens, UniProt P02768). In words: Binding affinity to cysteine residue of human serum albumin assessed as conjugation of compound with protein at 1:1 compound to human serum albumin concentration incubated for 2 hr by LC-MS/MS analysis. The format is cell-free.
Chain of Albumin (P02768 whole entry): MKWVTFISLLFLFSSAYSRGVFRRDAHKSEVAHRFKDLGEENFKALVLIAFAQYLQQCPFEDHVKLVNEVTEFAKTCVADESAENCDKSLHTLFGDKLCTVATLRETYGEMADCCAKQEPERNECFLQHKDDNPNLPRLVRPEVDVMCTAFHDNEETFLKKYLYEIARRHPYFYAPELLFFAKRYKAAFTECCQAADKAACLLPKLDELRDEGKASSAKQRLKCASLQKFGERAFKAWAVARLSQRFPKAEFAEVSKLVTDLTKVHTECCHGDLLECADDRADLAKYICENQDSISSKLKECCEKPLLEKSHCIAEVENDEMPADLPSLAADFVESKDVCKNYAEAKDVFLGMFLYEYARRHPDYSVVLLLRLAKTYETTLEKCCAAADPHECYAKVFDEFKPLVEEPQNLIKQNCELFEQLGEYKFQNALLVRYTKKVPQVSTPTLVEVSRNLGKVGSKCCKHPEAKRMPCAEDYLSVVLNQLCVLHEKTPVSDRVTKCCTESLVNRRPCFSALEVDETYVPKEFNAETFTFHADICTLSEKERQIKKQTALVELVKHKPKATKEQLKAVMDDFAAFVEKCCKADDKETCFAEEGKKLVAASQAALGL
For data set [11], the target named is T1, Sortase A (Staphylococcus aureus, UniProt Q9S446).
T1 sequence (Q9S446 whole entry): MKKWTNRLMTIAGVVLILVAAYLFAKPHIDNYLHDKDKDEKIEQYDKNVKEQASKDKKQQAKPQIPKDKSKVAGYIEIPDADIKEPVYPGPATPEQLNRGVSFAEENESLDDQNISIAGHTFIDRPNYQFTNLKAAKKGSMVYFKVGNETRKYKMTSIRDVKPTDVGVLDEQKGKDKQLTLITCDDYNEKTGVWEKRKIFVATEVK
As to the kind of experiment: Inhibition of Staphylococcus aureus sortase A using Abz/Dnp fluorescent peptide as a substrate measured after 30 mins by fluorescent based analysis.

In data set [12] the test system is Staphylococcus aureus. As to the kind of experiment: Inhibition of methicillin-susceptible Staphylococcus aureus ATCC 29213 bacterial cell adhesion to fibronectin at 0.1 mg/ml followed by compound addition on fibronectin precoated plate measured after 2 hrs by crystal violet dye based analysis. The format is functional.

Converted amounts (≈) assume the structure as drawn. The source made the active and inactive calls. The calls are words filed in the database; no cut-off is given here.

As usually defined, the MIC is the least concentration at which growth counts as inhibited. By MBC is commonly meant the lowest tested concentration that kills the bacteria rather than only halting them. As a reminder, the IC50 is the midpoint of a concentration-inhibition curve. Turning to `Cc1ccc(S(=O)(=O)/C=C/C#N)cc1`, the figures for the zone of inhibition at 30 µg/disc in data set [1], in data set [2] and in [3] were 27.7 mm, 28 mm and 12.9 mm, respectively. The MIC was 7.5 µg/mL (≈ 36.2 µM) in data set [4], 1.88 µg/mL (≈ 9.05 µM) in data set [5] and 120 µg/mL (≈ 579 µM) in [6]. Besides, the results for the MBC in [7], in data set [8] and in data set [9] were 60 µg/mL (≈ 289 µM), 15 µg/mL (≈ 72.4 µM) and above 120 µg/mL, respectively. In addition, the result in data set [10] was Active. For the same compound, the IC50 in data set [11] worked out at 129 µM. Moreover, in [12], the inhibition entry was “Active”.
